Test results published in a melting point compilation (Tetko et al.; mined from patent text by program, amines drawn as free bases though some values may be those of a salt).

SMILES	melting point [°C]
CS(=O)(=O)NC(=O)C(Cc1ccc(OCc2ccccc2)cc1)NC(=O)c1cn2cc(-c3ccc(Cl)cc3)ccc2n1 (centres undefined)	232
Cc1c(CCC(=O)c2c[nH]c3ccccc23)ncn1C(c1ccccc1)(c1ccccc1)c1ccccc1	225 to 227
CC(C)c1ccc(CN(C(=N)N)c2ccc3c4c(cccc24)CC3)cc1	153 to 155
CCCc1nc2cc(C(=O)c3ccccc3)ccc2n1Cc1ccc(Cl)c(Cl)c1	168 to 169
Cc1ccc(S(=O)(=O)N(OC(C)C)c2ccc([N+](=O)[O-])cc2Cl)cc1	160 to 162
Nc1ccc2c3c(cccc13)C(=O)N(CCCCBr)C2=O	175 to 176
NNC(=C[N+](=O)[O-])NCc1ccc(Cl)nc1	188 to 190
CC(C)C#CC1(C(F)(F)F)OCC(=O)Nc2ccc(Cl)cc21 (centres undefined)	183 to 184
CSc1cc2cc(-c3ccccc3)ccc2cc1O	129 to 130
CC(C)(C)OC(=O)N1CCC[C@H](C(=O)c2ccccc2)C1	75 to 79
CC(=O)Oc1cc(Cl)ccc1C1(OC(C)=O)C(=O)c2ccccc2C1=O	148 to 150
CN(C)c1ccc(/C=C/c2nc3cc(Cl)ccc3s2)cc1	182 to 184
CC(C)(C)c1nc(C(=O)O)c(Cl)c(N)c1F	149 to 151
O=[N+]([O-])c1ccc(NS(=O)(=O)c2cccc(C(F)(F)F)c2)c(Cl)c1	126 to 127
CC1=C(c2ccccc2)C(=O)N(C(C)(C)C(=O)Nc2cccc(Cl)c2)CO1	114
CC12CC(F)C3(Br)C(CCC4=CC(=O)CCC43C)C1CCC2=O (centres undefined)	165 to 166
O=C(NOCCO)c1cc(Cl)c(F)c(F)c1Nc1ccc(I)cc1F	180
Cc1c(N)c(=O)n2c3c(cc(C(O)(C(F)(F)F)C(F)(F)F)cc13)CC2	292 to 293
O=C(O)CCCC(=O)Nc1ccc(N2CCN(C3(c4ccc(-c5ccccc5)cc4)C(=O)NC(=O)NC3=O)CC2)cc1	268 to 269
Nc1ccc(Oc2ncc(C(F)(F)F)cc2Cl)cc1	85 to 87
Nc1sc2c(c1C(=O)c1ccc3c(c1)Cc1ccccc1-3)CCC2	176 to 182
CC(C)(C)c1cc(CCNCc2cccc(NC(=N)c3cccs3)c2)cc(C(C)(C)C)c1O	116 to 117
C#CCC(CCc1ccccc1)(C(N)=S)c1cccnc1 (centres undefined)	73 to 74
C=CCN1CCCC1CNC(C)=O (centres undefined)	42
CCC(C(=O)O)N(C(=O)c1cccn1-c1ccc(F)cc1)c1ccc(N2CCCCC2)c(C#N)c1 (centres undefined)	138 to 139
N#Cc1cnn2c(C(F)(F)F)cc(-c3cccc(C(F)(F)F)c3)nc12	192
COc1ccc(C(=O)c2c(-c3ccccc3)oc3ccc([N+](=O)[O-])cc23)cc1	153

SMILES	melting point [°C]
O=C(O)C1=C(C(=O)Nc2ccc(Br)cc2F)CCCC1	98 to 99
Cc1ccc(C)c(NS(=O)(=O)c2ccc(N3CCNC3=O)cc2)c1	213 to 215
O=C(O)COc1ccc(C(F)(F)F)cc1C(=O)NCc1ccc(Br)cc1F	169 to 170
Cc1ccc(C)n1-c1ccc(C=CC(=O)O)cc1	184 to 185
COc1ccc2c(c1)CC[C@@H](O)[C@@H]2n1nc(-c2c(-c3ccccc3)nn3ccccc23)ccc1=O (relative stereo)	146 to 150
COc1cc(-c2nc3ccc(OCCCN(C)C)cc3n2Cc2ccccc2C(F)(F)F)cc(OC)c1OC	142
CSc1cc(Cl)cc(C(=O)O)c1	148 to 150
O=[N+]([O-])c1ccccc1Nc1ccc(-c2ccc(Nc3ccccc3[N+](=O)[O-])cc2)cc1	211 to 222
CC(C)OCC1(C(F)(F)F)c2cc(Cl)ccc2Nc2ncc(Cl)cc21 (centres undefined)	137 to 138
Cc1ccc2cc(-c3cccs3)ccc2n1	87
CCCCN(CCCC)C(=O)Cc1ccccc1Nc1c(Cl)cccc1Cl	66 to 68
Cn1cc(C2=C(c3c4n(c5ccccc35)CC(NC(=O)OC(C)(C)C)CC4)C(=O)OC2=O)c2ccccc21 (centres undefined)	141 to 145
CCOC(=O)[C@H]1CCCN2CCc3c([nH]c4ccc(Cl)cc34)[C@@H]12 (racemic)	88 to 90
Cc1c(C(=O)c2cccnc2)sc2ccc(C(=O)O)cc12	264 to 265
O=C1CCN(C(=O)c2ccc(Cl)cc2Cl)c2ccc(Cl)cc21	177 to 178
CCCc1nc2c(C)cnc(C(=O)OC)c2n1Cc1ccc(-c2ccccc2-c2nnnn2C(c2ccccc2)(c2ccccc2)c2ccccc2)cc1	239 to 242
COc1ccc(C(=O)NCCCCCCCCNC(=O)c2ccc(OC)cc2)cc1	175 to 176
O=P(O)(O)C(O)(Cc1ccc(Cl)cc1)P(=O)(O)O	219
Cc1ncsc1C(C)(O)c1ccoc1 (centres undefined)	102 to 104
CC(C)(C)C(=O)OCC1OC(OC(=O)C(C)(C)C)C(OC(=O)C(C)(C)C)C(OC(=O)C(C)(C)C)C1OC(=O)C(C)(C)C (centres undefined)	153 to 156
O=C(Nc1cccnc1)N1CCc2ccc(Cl)c(Cl)c21	178 to 180
O=C1CCC(c2ccc3c(c2)OCO3)CC1	92 to 93.5
Cc1ccc(C(=O)C2=C(O)C(=O)N(c3ccc(N(C)C)nn3)C2c2ccc(C(C)C)cc2)cc1 (centres undefined)	281
CCCCC[C@H]1CC[C@H](c2ccc(-c3ccc(CCc4ccc(OCC)cc4)cc3)cc2F)CC1	133
CCCN(CCC)Cc1coc(-c2ncn3c2CN(C)C(=O)c2c(Cl)cccc2-3)n1	105 to 107
O=C(O)c1ccc2c(c1)nc(-c1ccc(Oc3cccc(OCc4ccncc4)c3)cc1)n2C1CCCCC1	235 to 237
OCCCN1CCN(C2=Nc3ccccc3Nc3ccsc32)CC1	172 to 173

Second part, the molecule after the results:

melting point [°C]	SMILES
214 to 217	CCOc1ccc2c(=O)c(-c3nnnn3C)cn(C)c2c1
167 to 170	CCOCCc1nc(N)cc(=O)[nH]1
160 to 163	COC(=O)C1=C(C)NC(C)=C(S(C)(=O)=O)C1c1ccccc1C(F)(F)F (centres undefined)
195 to 197	C=C(C(=O)NS(=O)(=O)c1cccc(C#N)c1)c1ccc(OCCOC)cc1Oc1ncc(C(F)(F)F)cc1Cl
208 to 210	c1ccc2c(c1)-c1ccccc1C21c2cccnc2-c2ncccc21
148 to 150	O=C(Oc1ccc([N+](=O)[O-])cc1)c1ccnc(F)c1
169 to 172	CCOC(=O)c1cc(=O)c2cc(O)c(=O)ccc2[nH]1
198 to 200	CC(=O)c1ccc(N2CCN(Cc3n[nH]c4ccccc34)CC2)cc1
170 to 171	NCC1Cc2cc(F)cc(-c3ccncc3)c2O1 (centres undefined)
218 to 221	CC(=O)c1ccc(-c2nn(C(C)c3oc4ccccc4c(=O)c3-c3cccc(F)c3)c3ncnc(N)c23)cc1 (centres undefined)
160 to 165	Cn1nnnc1C(F)(F)C(O)(Cn1cncn1)c1ccc(F)cc1F (centres undefined)
172 to 175	N=C(N)Nc1nc(CSCCNc2c(NCc3ccncc3)c(=O)c2=O)cs1
184 to 186	CON1CCC(=Cc2nc(C(C)(C)C)c(O)c(C(C)(C)C)n2)C1=O
59 to 62	CCOC(=O)Cc1c2ccccc2n2c(-c3ccccc3)nccc12
161 to 163	COc1cn(-c2ccc(-n3c(=O)ccn3C(F)F)cc2F)nc(-c2ccnn2-c2ccccc2)c1=O
137 to 138	CCOC(=O)CNc1ncccc1NC(=O)c1ccc(Cl)c(Cl)c1
272 to 274	CCNc1cc(NS(=O)(=O)c2ccc(N)cc2)nc(N)n1
205 to 207	CCOC(=O)C1=CN(CC)c2cc(C#N)c(F)cc2C1
98 to 104	COc1ncc(C(F)(F)F)cc1C=NO
142	CCCC(=O)c1cc2nc(CO)n(C)c2cc1C
134 to 135	COc1cc2c(cc1OCc1ccccc1)CCCN(Cc1cc(OC)c(OC)c(OC)c1)C2=O
176 to 177	CNC(CSCC(=O)c1ccc2[nH]c3ncc(Cl)cc3c2c1)NC
103 to 105	CCOC(=O)c1cn(-c2cccc(Oc3ccc(Br)cn3)c2)cn1

melting point [°C]	SMILES
88 to 90	CCOC(=O)C(CNC(C)=O)c1cn(C(=O)OCC)c2ccc(OC)cc12 (centres undefined)
115 to 117	CN(CCCC(=O)Nc1ccc2[nH]ncc2c1)Cc1ccccc1
104	CCCc1nc(NC2CC2)nc(N2CCOCC2)n1
54.5 to 55.5	COC(=O)c1cccc2c(C)c(C)oc12
41 to 43	CCOc1ccc([N+](=O)[O-])c(C)c1
87 to 88	COC(=O)/C(=C/c1cccc(OC)c1)c1cc(OC)c(OC)c(OC)c1
305 to 308	Cc1nc2[nH]c3ccccc3c2c(N)c1C(N)=O
216 to 218	O=Cc1ccc(-c2cc(-c3c(-c4ccccn4)nc4ccccn34)ccn2)cc1
82 to 84	C=CCNc1nc(NC/C=C/c2ccccc2)c2scc(C)c2n1
151 to 153	O=c1c(CCl)csc2ccc3ccccc3c12
86 to 87.5	COC(=O)c1cc(N=C=S)c(C)cc1OC
161 to 163	COCOCc1nc2nccnc2c(=O)[nH]1
130	CNc1cc(Oc2ccc(Cl)cc2Cn2ccnc2)ccc1[N+](=O)[O-]
138 to 140	CCOC(=O)c1c(C)nc2c(c1N)c1ccccc1n2Cc1ccc(OC)cc1
225 to 230	Nc1ncnc2c1ncn2[C@@H]1O/C(=C\F)[C@@H](O)[C@H]1O
140 to 142	COc1ccc(C(Cl)=C(C#N)c2ccc(OC)cc2)cc1
204 to 206	COc1nc(Br)cnc1NS(=O)(=O)c1ccccc1-c1ccc(C)cc1
221 to 230	Cc1nc(-c2ccc3c(c2)NC(=O)CO3)c(-c2ccccc2)s1
178 to 179	CC(C)(C)c1cc(NC(=O)Nc2ccc(Cl)c(Cl)c2)[nH]n1
160	CCCCc1nc(CO)c(Br)[nH]1
76 to 78	CCCCCCCOc1ccc(C(=O)O)c(Cl)c1
129 to 132	COc1c(C(=O)O)cc(Cl)c2c1CCCN2
